Experimental data: patent US9266883B2, “Ring-fused bicyclic pyridyl derivatives as FGFR4 inhibitors” (Novartis AG, priority 2013, dated 2016)
Where a name gives a salt, the structure may show the parent alone. Read-outs that look alike come from different tables or passages of the source.

Key:
Tel-FGFR4 = Tel-FGFR4 (Homo sapiens (Human), UniProt P22455); experiment: In vitro cellular kinase assay for FGFR4 (BaF3-Tel-FGFR4 cells, MSD capture ELISA of tyrosine phosphorylation); assay type: cell-based
Sequence of Tel-FGFR4 (P22455 other isoform, or with tags, fused parts or gaps): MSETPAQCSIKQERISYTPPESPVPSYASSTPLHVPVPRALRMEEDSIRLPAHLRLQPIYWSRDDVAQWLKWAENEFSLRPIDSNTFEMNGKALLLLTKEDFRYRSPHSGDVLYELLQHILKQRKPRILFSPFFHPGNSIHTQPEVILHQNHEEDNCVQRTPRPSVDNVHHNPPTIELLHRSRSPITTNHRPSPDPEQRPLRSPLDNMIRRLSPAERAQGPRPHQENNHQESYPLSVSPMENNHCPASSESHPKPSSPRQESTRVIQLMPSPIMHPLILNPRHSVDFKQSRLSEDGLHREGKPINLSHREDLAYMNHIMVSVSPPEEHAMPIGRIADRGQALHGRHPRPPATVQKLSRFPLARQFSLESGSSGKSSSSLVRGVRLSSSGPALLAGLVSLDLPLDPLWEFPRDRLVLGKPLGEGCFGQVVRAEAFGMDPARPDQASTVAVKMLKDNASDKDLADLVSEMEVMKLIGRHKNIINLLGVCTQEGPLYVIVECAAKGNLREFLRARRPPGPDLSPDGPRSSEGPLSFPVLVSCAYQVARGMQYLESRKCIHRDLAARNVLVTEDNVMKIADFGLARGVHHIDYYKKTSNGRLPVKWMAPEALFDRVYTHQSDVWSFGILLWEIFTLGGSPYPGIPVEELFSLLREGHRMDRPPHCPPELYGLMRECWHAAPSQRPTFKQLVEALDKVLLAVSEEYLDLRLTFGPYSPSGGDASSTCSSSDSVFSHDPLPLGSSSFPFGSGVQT

[1] = target: FGFR4 (GST-FGFR4(388-802)) (Homo sapiens (Human), UniProt P22455); experiment: In-vitro biochemical kinase assay for FGFR4 (Caliper microfluidic mobility shift)
Sequence of FGFR4 (GST-FGFR4(388-802)) (P22455 388-802): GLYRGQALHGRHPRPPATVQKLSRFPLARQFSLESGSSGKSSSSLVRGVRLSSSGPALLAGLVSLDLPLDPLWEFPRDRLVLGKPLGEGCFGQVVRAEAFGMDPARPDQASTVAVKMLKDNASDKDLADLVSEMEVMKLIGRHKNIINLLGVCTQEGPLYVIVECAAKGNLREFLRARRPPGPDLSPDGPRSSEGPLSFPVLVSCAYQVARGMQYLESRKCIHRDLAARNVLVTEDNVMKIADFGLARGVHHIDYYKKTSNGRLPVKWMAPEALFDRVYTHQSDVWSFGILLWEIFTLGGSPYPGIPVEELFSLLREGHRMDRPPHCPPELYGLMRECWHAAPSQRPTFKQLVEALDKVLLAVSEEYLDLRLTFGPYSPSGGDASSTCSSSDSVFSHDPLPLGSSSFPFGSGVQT

[2] = system: HuH-7 hepatocellular carcinoma cells; experiment: CellTiter Glo (CTG) Assay; conditions: Homo sapiens, Huh-7, 72 h, read-out: HUH7 proliferation (nM) CTG
[3] = BaF3-Tel-FGFR4 cells, 1 hour incubation, read-out: Cellular BaF3 FGFR4 IC50
[4] = read-out: Biochemical FGFR4 IC50
[5] = Cellular BaF3 FGFR4 assay, read-out: Cellular IC50
[6] = biochemical FGFR4 assay, read-out: Biochemical IC50

Structure (SMILES)	IC50 [2]	IC50 (Tel-FGFR4; [5])	IC50 [1, 6]	other results
COCCNc1cc(NC(=O)N2CCCc3cc(CN4CC[C@@H](O)C4=O)c(C=O)nc32)ncc1C#N [Example 105, (R)-N-(5-cyano-4-((2-methoxyethyl)amino)pyridin-2-yl)-7-formyl-6-((3-hydroxy-2-oxopyrrolidin-1-yl)methyl)-3,4-dihydro-1,8-naphthyridine-1(2H)-carboxamide]	32.5 nM	–	–	IC50 (Tel-FGFR4; [3]): 6.2 nM; IC50 [1, 4]: 0.8 nM
N#Cc1cnc(NC(=O)N2CCCc3ccc(C=O)nc32)cc1OCC1CCCCO1 (racemic) [Example 36, N-(5-cyano-4-((tetrahydro-2H-pyran-2-yl)methoxy)pyridin-2-yl)-7-formyl-3,4-dihydro-1,8-naphthyridine-1(2H)-carboxamide]	> 3000 nM	–	–	–
CN1CCCC(COc2cc(NC(=O)N3CCCc4cc(CO)c(C=O)nc43)ncc2C#N)C1 (racemic) [Example 73, N-(5-cyano-4-((1-methylpiperidin-3-yl)methoxy)pyridin-2-yl)-7-formyl-6-(hydroxymethyl)-3,4-dihydro-1,8-naphthyridine-1(2H)-carboxamide]	502 nM	–	–	–
CN1CCN(Cc2cc3c(nc2C=O)N(C(=O)Nc2cc(NCCOC(C)(C)C)c(C#N)cn2)CCC3)C(=O)C1 [Example 196, N-(4-((2-(tert-butoxy)ethyl)amino)-5-cyanopyridin-2-yl)-7-formyl-6-((4-methyl-2-oxopiperazin-1-yl)methyl)-3,4-dihydro-1,8-naphthyridine-1(2H)-carboxamide]	150 nM	–	–	IC50 (Tel-FGFR4; [3]): 18 nM
COCCNc1cc(NC(=O)N2CCCc3cc(C(C)N(C)C(C)=O)c(C=O)nc32)ncc1C#N (racemic) [Example 135, N-(5-cyano-4-((2-methoxyethyl)amino)pyridin-2-yl)-7-formyl-6-(1-(N-methylacetamido)ethyl)-3,4-dihydro-1,8-naphthyridine-1(2H)-carboxamide]	2850 nM	–	–	–
COCCNc1cc(NC(=O)N2CCCc3cc(CN4C(=O)COC[C@H]4C)c(C=O)nc32)ncc1C#N [Example 118, (R)-N-(5-cyano-4-((2-methoxyethyl)amino)pyridin-2-yl)-7-formyl-6-((3-methyl-5-oxomorpholino)methyl)-3,4-dihydro-1,8-naphthyridine-1(2H)-carboxamide]	101 nM	–	–	–
COCCNc1cc(NC(=O)N2CCCc3cc(CN4C(=O)COC[C@@H]4C)c(C=O)nc32)ncc1C#N [Example 120, (S)-N-(5-cyano-4-((2-methoxyethyl)amino)pyridin-2-yl)-7-formyl-6-((3-methyl-5-oxomorpholino)methyl)-3,4-dihydro-1,8-naphthyridine-1(2H)-carboxamide]	160 nM	–	–	–
COCCOc1cc(NC(=O)N2c3nc(C=O)c(CN4CCN(C)CC4=O)cc3CC[C@@H]2C)ncc1C#N [Example 226, (S)-N-(5-cyano-4-(2-methoxyethoxyl)pyridin-2-yl)-7-formyl-2-methyl-6-((4-methyl-2-oxopiperazin-1-yl)methyl)-3,4-dihydro-1,8-naphthyridine-1(2H)-carboxamide]	134 nM	–	–	–
CC(C)Oc1cc(NC(=O)N2c3nc(C=O)c(CN4CCN(C)CC4=O)cc3CC[C@@H]2C)ncc1C#N [Example 227, (S)-N-(5-cyano-4-isopropoxypyridin-2-yl)-7-formyl-2-methyl-6-((4-methyl-2-oxopiperazin-1-yl)methyl)-3,4-dihydro-1,8-naphthyridine-1(2H)-carboxamide]	104 nM	–	–	–
COCCNc1cc(NC(=O)N2CCCc3cc(-c4cccnc4)c(C=O)nc32)ncc1C#N [Example 256, N-(5-cyano-4-((2-methoxyethyl)amino)pyridin-2-yl)-7-formyl-6-(pyridin-3-yl)-3,4-dihydro-1,8-naphthyridine-1(2H)-carboxamide]	1360 nM	–	–	–
COCCNc1cc(NC(=O)N2CCCc3cc(CN4CCN(C)C(C)(C)C4=O)c(C=O)nc32)ncc1C#N [Example 245, N-(5-cyano-4-((2-methoxyethyl)amino)pyridin-2-yl)-7-formyl-6-((3,3,4-trimethyl-2-oxopiperazin-1-yl)methyl)-3,4-dihydro-1,8-naphthyridine-1(2H)-carboxamide]	103 nM	–	–	IC50 (Tel-FGFR4; [3]): 11.5 nM
COCCOc1cc(NC(=O)N2CCCc3cc(CN4CCNCC4=O)c(C=O)nc32)ncc1C#N [N-(5-cyano-4-(2-methoxyethoxyl)pyridin-2-yl)-7-formyl-6-((2-oxopiperazin-1-yl)methyl)-3,4-dihydro-1,8-naphthyridine-1(2H)-carboxamide trifluoroacetate]	–	56 nM	4.6 nM	–
COCCNc1cc(NC(=O)N2CCCc3cc(CN4CCCC45COC5)c(C=O)nc32)ncc1C#N [Example 193, 6-(2-oxa-5-azaspiro[3.4]octan-5-ylmethyl)-N-(5-cyano-4-((2-methoxyethyl)amino)pyridin-2-yl)-7-formyl-3,4-dihydro-1,8-naphthyridine-1(2H)-carboxamide]	2780 nM	–	–	–
COC[C@@H](C)Oc1cc(NC(=O)N2CCCc3cc(CN4CCCC4=O)c(C=O)nc32)ncc1C#N [(R)-N-(5-cyano-4-((1-methoxypropan-2-yl)oxy)pyridin-2-yl)-7-formyl-6-((2-oxopyrrolidin-1-yl)methyl)-3,4-dihydro-1,8-naphthyridine-1(2H)-carboxamide]	–	2.3 nM	0.3 nM	–
CC(C)COc1cc(NC(=O)N2CCCc3cc(C(F)F)c(C=O)nc32)ncc1C#N [N-(5-cyano-4-isobutoxypyridin-2-yl)-6-(difluoromethyl)-7-formyl-3,4-dihydro-1,8-naphthyridine-1(2H)-carboxamide]	–	139 nM	30 nM	–
COC[C@H](C)Oc1cc(NC(=O)N2CCCc3cc(CN(C)C(C)=O)c(C=O)nc32)ncc1C#N [(S)-N-(5-cyano-4-((1-methoxypropan-2-yl)oxy)pyridin-2-yl)-7-formyl-6-((N-methylacetamido)methyl)-3,4-dihydro-1,8-naphthyridine-1(2H)-carboxamide]	–	12.1 nM	4 nM	–
N#Cc1cnc(NC(=O)N2CCCc3cc(CO)c(C=O)nc32)cc1OC1CCOCC1 [Example 53, N-(5-cyano-4-((tetrahydro-2H-pyran-4-yl)oxy)pyridin-2-yl)-7-formyl-6-(hydroxymethyl)-3,4-dihydro-1,8-naphthyridine-1(2H)-carboxamide]	–	–	–	IC50 (Tel-FGFR4; [3]): 36 nM; IC50 [1, 4]: 2.9 nM
CC(C)Oc1cc(NC(=O)N2CCCc3cc(CN4CCN(C)CC4=O)c(C=O)nc32)ncc1C#N [Example 92, N-(5-cyano-4-isopropoxypyridin-2-yl)-7-formyl-6-((4-methyl-2-oxopiperazin-1-yl)methyl)-3,4-dihydro-1,8-naphthyridine-1(2H)-carboxamide]	–	–	–	IC50 (Tel-FGFR4; [3]): 3.3 nM; IC50 [1, 4]: 0.7 nM
COC[C@H](C)Oc1cc(NC(=O)N2CCCc3cc(CN4CCCC4=O)c(C=O)nc32)ncc1C#N [(S)-N-(5-cyano-4-((1-methoxypropan-2-yl)oxy)pyridin-2-yl)-7-formyl-6-((2-oxopyrrolidin-1-yl)methyl)-3,4-dihydro-1,8-naphthyridine-1(2H)-carboxamide]	–	7.6 nM	4.6 nM	–

Further lines, with some results ahead:

IC50 [2]	IC50 (Tel-FGFR4; [5])	IC50 [1, 6]	Structure (SMILES)	other results
–	6.9 nM	1.3 nM	CCOc1cc(NC(=O)N2CCCc3cc(CN4CCN(C)CC4=O)c(C=O)nc32)ncc1C#N [N-(5-cyano-4-ethoxypyridin-2-yl)-7-formyl-6-((4-methyl-2-oxopiperazin-1-yl)methyl)-3,4-dihydro-1,8-naphthyridine-1(2H)-carboxamide]	–
–	4.8 nM	0.9 nM	CN1CCN(Cc2cc3c(nc2C=O)N(C(=O)Nc2cc(NCC(C)(C)O)c(C#N)cn2)CCC3)C(=O)C1 [N-(5-cyano-4-((2-hydroxy-2-methylpropyl)amino)pyridin-2-yl)-7-formyl-6-((4-methyl-2-oxopiperazin-1-yl)methyl)-3,4-dihydro-1,8-naphthyridine-1(2H)-carboxamide]	–
–	3.6 nM	0.2 nM	CCNc1cc(NC(=O)N2CCCc3cc(CN(C)C(=O)CN(C)C)c(C=O)nc32)ncc1C#N [N-(5-cyano-4-(ethylamino)pyridin-2-yl)-6-((2-(dimethylamino)-N-methylacetamido)methyl)-7-formyl-3,4-dihydro-1,8-naphthyridine-1(2H)-carboxamide]	–
–	5.5 nM	0.5 nM	CCN(Cc1cc2c(nc1C=O)N(C(=O)Nc1cc(NCCOC)c(C#N)cn1)CCC2)C(=O)CN(C)C [N-(5-cyano-4-((2-methoxyethyl)amino)pyridin-2-yl)-6-((2-(dimethylamino)-N-ethylacetamido)methyl)-7-formyl-3,4-dihydro-1,8-naphthyridine-1(2H)-carboxamide]	–
–	12.5 nM	1.2 nM	CC(C)Oc1cc(NC(=O)N2CCCc3cc(CN(C)C(=O)C(C)C)c(C=O)nc32)ncc1C#N [N-(5-cyano-4-isopropoxypyridin-2-yl)-7-formyl-6-((N-methylisobutyramido)methyl)-3,4-dihydro-1,8-naphthyridine-1(2H)-carboxamide]	–
–	21 nM	9.5 nM	COCCNc1cc(NC(=O)N2CCCc3cc(-c4sc(C)nc4C)c(C=O)nc32)ncc1C#N [N-(5-cyano-4-((2-methoxyethyl)amino)pyridin-2-yl)-6-(2,4-dimethylthiazol-5-yl)-7-formyl-3,4-dihydro-1,8-naphthyridine-1(2H)-carboxamide]	–
–	75 nM	49 nM	COc1nc(NC(=O)N2CCCc3cc(CN4CCN(C)CC4=O)c(C=O)nc32)ncc1C#N [N-(5-cyano-4-methoxypyrimidin-2-yl)-7-formyl-6-((4-methyl-2-oxopiperazin-1-yl)methyl)-3,4-dihydro-1,8-naphthyridine-1(2H)-carboxamide]	–
–	23.5 nM	1.6 nM	CC(C)Oc1cc(NC(=O)N2CCCc3cc(CN4CCNC(=O)C4)c(C=O)nc32)ncc1C#N [N-(5-cyano-4-isopropoxypyridin-2-yl)-7-formyl-6-((3-oxopiperazin-1-yl)methyl)-3,4-dihydro-1,8-naphthyridine-1(2H)-carboxamide]	–
